The target in one test is T1, human GLP-1R (Homo sapiens, UniProt P43220).
T1 construct: expressed in transfected cells; host or cells: HEK293
Briefly: cAMP formation in HEK293 cells expressing human GLP-1R. In kind it is cell-based. As to conditions: 15 min at 37° C. From the text:
(§1) Similarly, activation of the GLP-1 receptor by a GLP-1 agonist will stimulate cellular cAMP formation. Thus, production of cAMP in suitable cells expressing one of these two receptors can be used to monitor the relevant receptor activity.
(§2) The skilled person will be aware of suitable assay formats, and examples are provided below. […] (Where sequences of precursor proteins are referred to, it should of course be understood that assays may make use of the mature protein, lacking the signal sequence).
(§3) On the day of analysis, growth medium was removed and the cells washed once with 200 μl Tyrode buffer. Cells were incubated in […] containing increasing concentrations of test peptides, 100 μM IBMX, and 6 mM glucose for 15 min at 37° C. The reaction was stopped by addition of 25 μl 0.5 M HCl and incubated on ice for 60 min. The cAMP content was estimated using the FlashPlate® cAMP kit from Perkin-Elmer. EC50 values were estimated by computer aided curve fitting.

For the next test, the target named is T2, human glucagon receptor (Homo sapiens, UniProt P47871).
T2 construct: expressed in transfected cells; host or cells: HEK293
Briefly: cAMP formation in HEK293 cells expressing the human glucagon receptor. As to conditions: 15 min at 37° C., read-out: EC50 (nM) GuR. Format: cell-based.
Excerpt: as §1, §2, §3
(Changes in cAMP serve as a functional read-out for many G protein-coupled receptors.)

The record followed here is US20130157953A1, “TREATMENT OF CARDIAC CONDITIONS” (Zealand Pharma A/S, priority 2010, published 2013).

By EC50 is commonly meant the concentration at which the effect is half-maximal.

Numbered stars: 1 amine (or outer) side, 2 acyl side, 3 side chain; on linkers, the order of the positions; unused ones are H or OH. Bridge positions count the residues as written; N and C are the ends. Square brackets hold non-standard residues; d marks the D form. Side chains are listed from the residue outwards. Peptide text beside a SMILES is read from it. * marks the point of attachment. γGlu = O=C(O)[C@H](CCC(=O)[*:2])N[*:1]; Palmitoyl = CCCCCCCCCCCCCCCC(=O)*; Aib = CC(C)(N)C(=O)O

T2 sequence (P47871 26-477): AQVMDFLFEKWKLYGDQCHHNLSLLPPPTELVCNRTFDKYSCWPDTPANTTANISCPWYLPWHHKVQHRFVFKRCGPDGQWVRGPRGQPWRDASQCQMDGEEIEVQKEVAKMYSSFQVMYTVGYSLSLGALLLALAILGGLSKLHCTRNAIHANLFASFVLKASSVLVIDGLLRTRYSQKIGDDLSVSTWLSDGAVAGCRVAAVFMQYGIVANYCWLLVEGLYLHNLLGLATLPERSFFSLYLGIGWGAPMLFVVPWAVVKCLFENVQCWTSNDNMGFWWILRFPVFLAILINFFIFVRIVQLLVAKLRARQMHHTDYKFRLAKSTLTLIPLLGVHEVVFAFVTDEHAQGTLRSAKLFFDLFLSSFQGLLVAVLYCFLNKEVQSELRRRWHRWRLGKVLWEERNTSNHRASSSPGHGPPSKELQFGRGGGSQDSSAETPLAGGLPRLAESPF
T1 sequence (P43220 24-463): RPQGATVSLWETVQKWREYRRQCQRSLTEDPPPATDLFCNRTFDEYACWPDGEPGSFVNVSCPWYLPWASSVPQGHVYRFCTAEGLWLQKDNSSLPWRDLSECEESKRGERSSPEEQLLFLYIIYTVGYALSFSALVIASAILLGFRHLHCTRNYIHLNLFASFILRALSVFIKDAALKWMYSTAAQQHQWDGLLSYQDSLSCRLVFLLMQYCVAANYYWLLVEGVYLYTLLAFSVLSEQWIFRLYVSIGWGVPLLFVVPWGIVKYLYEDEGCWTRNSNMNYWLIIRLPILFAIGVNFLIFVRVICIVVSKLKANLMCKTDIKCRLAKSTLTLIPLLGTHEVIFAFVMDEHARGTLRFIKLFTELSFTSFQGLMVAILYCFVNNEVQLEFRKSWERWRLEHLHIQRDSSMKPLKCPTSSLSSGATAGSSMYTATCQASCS

On to `CC(C)C[C@H](NC(=O)[C@H](Cc1ccc(O)cc1)NC(=O)[C@H](CCCCN)NC(=O)[C@H](CO)NC(=O)[C@H](Cc1ccc(O)cc1)NC(=O)[C@H](CC(=O)O)NC(=O)[C@H](CO)NC(=O)[C@@H](NC(=O)[C@H](Cc1ccccc1)NC(=O)[C@@H](NC(=O)CNC(=O)[C@H](CCC(N)=O)NC(=O)[C@H](CO)NC(=O)[C@@H](N)Cc1c[nH]cn1)[C@@H](C)O)[C@@H](C)O)C(=O)N[C@@H](CC(=O)O)C(=O)N[C@@H](CO)C(=O)N[C@@H](CCCNC(=N)N)C(=O)N[C@@H](CCCNC(=N)N)C(=O)N[C@@H](C)C(=O)N[C@@H](CCC(N)=O)C(=O)N[C@@H](CC(=O)O)C(=O)N[C@@H](Cc1ccccc1)C(=O)N[C@H](C(=O)N[C@@H](Cc1c[nH]c2ccccc12)C(=O)N[C@@H](CC(C)C)C(=O)N[C@@H](CCC(=O)O)C(=O)N[C@@H](CCCNC(=N)N)C(=O)N[C@@H](C)C(N)=O)C(C)C` [Compound 251], for which the EC50 turned out to be 0.2 nM at human GLP-1R and 0.1 nM at human glucagon receptor.

Regarding “H-HSQGTFTSDYSRYLDSRRAQDFVWLLNK-NH2 [Compound 254]”, the EC50 on human GLP-1R and on human glucagon receptor was 0.2 nM in each case.

As for “H-HSQGTFTSDYSKYLDSRSAQDFVWLMNT-NH2 [Compound 245]”, the EC50 on human GLP-1R was 0.1 nM; at human glucagon receptor it was 0.05 nM.

For `CCCCCCCCCCCCCCCC(=O)N[C@@H](CCC(=O)NCCCC[C@H](NC(=O)[C@H](CC(C)C)NC(=O)[C@H](CC(C)C)NC(=O)[C@H](Cc1c[nH]c2ccccc12)NC(=O)[C@H](CCC(=O)O)NC(=O)[C@@H](NC(=O)[C@H](Cc1ccccc1)NC(=O)[C@H](CC(=O)O)NC(=O)[C@H](Cc1c[nH]cn1)NC(=O)[C@H](C)NC(=O)[C@H](C)NC(=O)[C@H](CCCCN)NC(=O)[C@H](CO)NC(=O)[C@H](CC(=O)O)NC(=O)[C@H](CC(C)C)NC(=O)[C@H](Cc1ccc(O)cc1)NC(=O)[C@H](CCCCN)NC(=O)[C@H](CO)NC(=O)[C@H](Cc1ccc(O)cc1)NC(=O)[C@H](CC(=O)O)NC(=O)[C@H](CO)NC(=O)[C@@H](NC(=O)[C@H](Cc1ccccc1)NC(=O)[C@@H](NC(=O)CNC(=O)[C@H](CCC(N)=O)NC(=O)[C@H](CO)NC(=O)[C@@H](N)Cc1c[nH]cn1)[C@@H](C)O)[C@@H](C)O)C(C)C)C(=O)N[C@@H](C)C(N)=O)C(=O)O` [Compound 205] (H-HSQGTFTSDYSKYLDSKAAHDFVEWLLK([γGlu-Palmitoyl])A-NH2), the values for the EC50 at human GLP-1R and at human glucagon receptor were 0.09 nM and 0.1 nM, respectively.

On to “H-HSQGTFTSDYSRYLDSRRAQDFVWLLNT-NH2 [Compound 253]”, for which the EC50 was determined as 0.2 nM on human GLP-1R and 0.1 nM on human glucagon receptor.

Take `CCCCCCCCCCCCCCCC(=O)N[C@@H](CCC(=O)NCCCC[C@H](NC(=O)[C@H](CCC(=O)O)NC(=O)[C@H](CC(=O)O)NC(=O)[C@H](CC(C)C)NC(=O)[C@H](Cc1ccc(O)cc1)NC(=O)[C@H](CCCCN)NC(=O)[C@H](CO)NC(=O)[C@H](Cc1ccc(O)cc1)NC(=O)[C@H](CC(=O)O)NC(=O)[C@H](CO)NC(=O)[C@@H](NC(=O)[C@H](Cc1ccccc1)NC(=O)[C@@H](NC(=O)CNC(=O)[C@H](CCC(N)=O)NC(=O)C(C)(C)NC(=O)[C@@H](N)Cc1c[nH]cn1)[C@@H](C)O)[C@@H](C)O)C(=O)N[C@@H](CCCNC(=N)N)C(=O)N[C@@H](C)C(=O)N[C@@H](CCCCN)C(=O)N[C@@H](CC(=O)O)C(=O)N[C@@H](Cc1ccccc1)C(=O)N[C@H](C(=O)N[C@@H](CCC(=O)O)C(=O)N[C@@H](Cc1c[nH]c2ccccc12)C(=O)N[C@@H](CC(C)C)C(=O)N[C@@H](CC(C)C)C(=O)N[C@@H](CO)C(=O)N[C@@H](C)C(N)=O)[C@@H](C)CC)C(=O)O` [Compound 263] (H-H[Aib]QGTFTSDYSKYLDEK([γGlu-Palmitoyl])RAKDFIEWLLSA-NH2): the figures for the EC50 on human GLP-1R and at human glucagon receptor were 0.1 nM and 0.16 nM, respectively.

“H-HSQGTFTSDYSKYLDSRHAQDFVWLMNT-NH2 [Compound 244]”: the EC50 was 0.5 nM on human GLP-1R and 0.05 nM at human glucagon receptor.

With “H-HSQGTFTSDYSKYLDKRRAEDFVWLMNT-NH2 [Compound 256]”, the figures for the EC50 at human GLP-1R and at human glucagon receptor were 0.2 nM and 0.07 nM, respectively.

Take “H-HSQGTFTSDYSKYLDSRYAQDFVWLMNT-NH2 [Compound 247]”: the figures for the concentration for a half-maximal effect (EC50) at human GLP-1R and on human glucagon receptor were 0.3 nM and 0.1 nM, respectively.

With `CCCCCCCCCCCCCCCC(=O)N[C@@H](CCC(=O)NCCCC[C@H](NC(=O)[C@H](C)NC(=O)[C@H](C)NC(=O)[C@H](CCCCN)NC(=O)[C@H](CO)NC(=O)[C@H](CC(=O)O)NC(=O)[C@H](CC(C)C)NC(=O)[C@H](Cc1ccc(O)cc1)NC(=O)[C@H](CCCCN)NC(=O)[C@H](CO)NC(=O)[C@H](Cc1ccc(O)cc1)NC(=O)[C@H](CC(=O)O)NC(=O)[C@H](CO)NC(=O)[C@@H](NC(=O)[C@H](Cc1ccccc1)NC(=O)[C@@H](NC(=O)CNC(=O)[C@H](CCC(N)=O)NC(=O)[C@H](CO)NC(=O)[C@@H](N)Cc1c[nH]cn1)[C@@H](C)O)[C@@H](C)O)C(=O)N[C@@H](CC(=O)O)C(=O)N[C@@H](Cc1ccccc1)C(=O)N[C@H](C(=O)N[C@@H](CCC(=O)O)C(=O)N[C@@H](Cc1c[nH]c2ccccc12)C(=O)N[C@@H](CC(C)C)C(=O)N[C@@H](CC(C)C)C(=O)N[C@@H](CCCNC(=N)N)C(=O)N[C@@H](C)C(N)=O)C(C)C)C(=O)O` [Compound 204] (H-HSQGTFTSDYSKYLDSKAAK([γGlu-Palmitoyl])DFVEWLLRA-NH2), the values for the EC50 on human GLP-1R and on human glucagon receptor were 0.1 nM and 0.04 nM, respectively.

Regarding “H-HSQGTFTSDYSKYLDSRAAQDFVWLMNT-NH2 [Compound 246]”, the half-maximal effective concentration (EC50) at human GLP-1R came out at 0.3 nM; at human glucagon receptor, 0.05 nM.

In the case of `CC(C)C[C@H](NC(=O)[C@H](CC(C)C)NC(=O)[C@H](Cc1c[nH]c2ccccc12)NC(=O)[C@H](CCC(=O)O)NC(=O)[C@@H](NC(=O)[C@H](Cc1ccccc1)NC(=O)[C@H](CC(=O)O)NC(=O)[C@H](Cc1c[nH]cn1)NC(=O)[C@H](C)NC(=O)[C@H](C)NC(=O)[C@H](CCCCN)NC(=O)[C@H](CO)NC(=O)[C@H](CC(=O)O)NC(=O)[C@H](CC(C)C)NC(=O)[C@H](Cc1ccc(O)cc1)NC(=O)[C@H](CCCCN)NC(=O)[C@H](CO)NC(=O)[C@H](Cc1ccc(O)cc1)NC(=O)[C@H](CC(=O)O)NC(=O)[C@H](CO)NC(=O)[C@@H](NC(=O)[C@H](Cc1ccccc1)NC(=O)[C@@H](NC(=O)CNC(=O)[C@H](CCC(N)=O)NC(=O)C(C)(C)NC(=O)[C@@H](N)Cc1c[nH]cn1)[C@@H](C)O)[C@@H](C)O)C(C)C)C(=O)N[C@@H](CCCNC(=N)N)C(=O)N[C@@H](C)C(N)=O` [Compound 45] (H-H[Aib]QGTFTSDYSKYLDSKAAHDFVEWLLRA-NH2), the EC50 at human GLP-1R is 0.08 nM; on human glucagon receptor it was 0.06 nM.

For the molecule `CCCCCCCCCCCCCCCC(=O)N[C@@H](CCC(=O)NCCCC[C@H](NC(=O)[C@H](CO)NC(=O)[C@H](CC(=O)O)NC(=O)[C@H](CC(C)C)NC(=O)[C@H](Cc1ccc(O)cc1)NC(=O)[C@H](CCCCN)NC(=O)[C@H](CO)NC(=O)[C@H](Cc1ccc(O)cc1)NC(=O)[C@H](CC(=O)O)NC(=O)[C@H](CO)NC(=O)[C@@H](NC(=O)[C@H](Cc1ccccc1)NC(=O)[C@@H](NC(=O)CNC(=O)[C@H](CCC(N)=O)NC(=O)C(C)(C)NC(=O)[C@@H](N)Cc1c[nH]cn1)[C@@H](C)O)[C@@H](C)O)C(=O)N[C@@H](C)C(=O)N[C@@H](C)C(=O)N[C@@H](Cc1c[nH]cn1)C(=O)N[C@@H](CC(=O)O)C(=O)N[C@@H](Cc1ccccc1)C(=O)N[C@H](C(=O)N[C@@H](CCC(=O)O)C(=O)N[C@@H](Cc1c[nH]c2ccccc12)C(=O)N[C@@H](CC(C)C)C(=O)N[C@@H](CC(C)C)C(=O)N[C@@H](CO)C(=O)N[C@@H](C)C(N)=O)C(C)C)C(=O)O` [Compound 208], the EC50 on human GLP-1R came to 0.11 nM; on human glucagon receptor, 0.16 nM.

Turning to `CC(C)C[C@@H]1NC(=O)[C@H](CC(C)C)NC(=O)[C@H](Cc2c[nH]c3ccccc23)NC(=O)[C@@H](NC(=O)[C@@H](NC(=O)[C@H](Cc2ccccc2)NC(=O)[C@H](CC(=O)O)NC(=O)[C@H](Cc2c[nH]cn2)NC(=O)[C@H](C)NC(=O)[C@H](C)NC(=O)[C@H](CCCCN)NC(=O)[C@H](CO)NC(=O)[C@H](CC(=O)O)NC(=O)[C@H](CC(C)C)NC(=O)[C@H](Cc2ccc(O)cc2)NC(=O)[C@H](CCCCN)NC(=O)[C@H](CO)NC(=O)[C@H](Cc2ccc(O)cc2)NC(=O)[C@H](CC(=O)O)NC(=O)[C@H](CO)NC(=O)[C@@H](NC(=O)[C@H](Cc2ccccc2)NC(=O)[C@@H](NC(=O)CNC(=O)[C@H](CCC(N)=O)NC(=O)[C@H](CO)NC(=O)[C@@H](N)Cc2c[nH]cn2)[C@@H](C)O)[C@@H](C)O)C(C)C)CCC(=O)NCCCC[C@@H](C(=O)N[C@@H](C)C(N)=O)NC1=O` [Compound 261] (H-HSQGTFTSDYSKYLDSKAAHDFVEWLLKA-NH2; lactam 24-28), the EC50 is 0.03 nM on human GLP-1R and 0.07 nM on human glucagon receptor.

For `CC(C)C[C@H](NC(=O)[C@H](Cc1ccc(O)cc1)NC(=O)[C@H](CCCCN)NC(=O)[C@H](CO)NC(=O)[C@H](Cc1ccc(O)cc1)NC(=O)[C@H](CC(=O)O)NC(=O)[C@H](CO)NC(=O)[C@@H](NC(=O)[C@H](Cc1ccccc1)NC(=O)[C@@H](NC(=O)CNC(=O)[C@H](CCC(N)=O)NC(=O)[C@H](CO)NC(=O)[C@@H](N)Cc1c[nH]cn1)[C@@H](C)O)[C@@H](C)O)C(=O)N[C@@H](CC(=O)O)C(=O)N[C@@H](CO)C(=O)N[C@@H](CCCNC(=N)N)C(=O)N[C@@H](CCCNC(=N)N)C(=O)N[C@@H](C)C(=O)N[C@@H](CCC(N)=O)C(=O)N[C@@H](CC(=O)O)C(=O)N[C@@H](Cc1ccccc1)C(=O)N[C@H](C(=O)N[C@@H](Cc1c[nH]c2ccccc12)C(=O)N[C@@H](CC(C)C)C(=O)N[C@@H](CCCCN)C(=O)N[C@@H](CO)C(=O)N[C@@H](C)C(N)=O)C(C)C` [Compound 249], the EC50 on human GLP-1R and on human glucagon receptor was 0.1 nM throughout.
